Laboratory results as given in ChEMBL document CHEMBL1140620, “Development of integrase inhibitors for treatment of AIDS: an overview” (Eur J Med Chem, 2007).
Blank lines part the entries; values can stand above or below the compound they belong to.

Columns and labels:
[1] = target: T1, Human immunodeficiency virus type 1 integrase (Human immunodeficiency virus 1, UniProt Q7ZJM1); test: Inhibition of HIV1 integrase-mediated 3'-end processing activity
[2] = target: T1, Human immunodeficiency virus type 1 integrase; test: Inhibition of HIV1 integrase strand transfer activity
[3] = system: Human immunodeficiency virus 1; test: Antiviral activity against human immunodeficiency virus 1 in cell culture; format: functional, organism-based
[4] = target: T1, Human immunodeficiency virus type 1 integrase; test: Inhibition of HIV1 integrase

T1 sequence (Q7ZJM1 whole entry): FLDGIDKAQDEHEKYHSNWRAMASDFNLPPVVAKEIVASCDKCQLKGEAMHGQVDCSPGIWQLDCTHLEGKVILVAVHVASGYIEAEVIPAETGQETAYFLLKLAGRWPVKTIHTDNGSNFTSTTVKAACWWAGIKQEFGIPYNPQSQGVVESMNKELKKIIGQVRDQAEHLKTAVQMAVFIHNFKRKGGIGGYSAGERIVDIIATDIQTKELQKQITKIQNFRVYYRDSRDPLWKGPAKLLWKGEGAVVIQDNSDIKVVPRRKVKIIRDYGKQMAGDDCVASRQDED

Compound: O=C(O)c1cc2cc(O)c(O)cc2[nH]1
IC50 [4]: < 10 µM

Compound: O=C(c1cc(Cc2ccccc2)cc(CN2CCCS2(=O)=O)c1)c1ncc2cccnc2c1O
IC50 [2]: 10 µM

Compound: O=C1C(O)=C(O)C(O)=C2CC(O)=CC=CC12 (stereo not given)
IC50 [4]: 2.1 µM

Compound: O=C(CC(=O)c1ccc(Cc2ccc(F)cc2)o1)c1nc[nH]n1
IC95 [3]: 12 µM

Compound: O=C(NCc1ccc(F)cc1)c1nc(N2CCCCS2(=O)=O)c2cccnc2c1O
IC95 [3]: 0.1 µM

Compound: O=C(O)C(=O)CC(=O)c1cccn1Cc1ccc(F)cc1
IC95 [3]: 0.1 µM

Further lines, results first:

IC50 [1]: 0.2 µM
IC50 [2]: 3.5 µM
Compound: O=C(O)C(=O)CC(=O)c1cc(OCc2ccccc2)cc(OCc2ccccc2)c1

EC50 [3]: 0.0009 µM
Compound: COc1cc2c(cc1Cc1cccc(Cl)c1F)c(=O)c(C(=O)O)cn2[C@H](CO)C(C)C

IC50 [2]: 1.8 µM
Compound: COc1cccc(CN(Cc2cccc(OC)c2)c2ccc3nc(N)[nH]c3c2)c1

IC50 [2]: 2.1 µM
Compound: N=C(N)c1ccc2cc(C#Cc3cccc(OCc4ccccc4)c3)ccc2c1

IC50 [2]: 10 µM
Compound: N#C/C(=C(/O)C(=O)O)c1cn(-c2ccc(F)cc2)c2ccccc12

IC50 [2]: 2.6 µM
Compound: CC(C)S(=O)(=O)Nc1ccc2nc(N)[nH]c2c1

IC50 [2]: 3.4 µM
Compound: CC(C)(C)C1CCC(C2=NCCc3ccc([C@H]4CC4c4ccc5cc(C(=N)N)ccc5c4)cc32)CC1 (stereo not given in full)

EC50 [3]: 1.5 µM
Compound: O=C(/C=C/c1cccn1Cc1ccccc1)CC(=O)C(=O)O
